Columns and labels:
Assay type in all cases: in vivo
[1] = system: bamyardgrass (Echinochloa crus-galli); test: Test B flood test; conditions: for Plant response rating, Barnyardgrass: Postemergence (flood test species)
Procedure, shortened: (§1)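 Plants were grown to the 2-leaf stage before treatment with test chemical, then held in a greenhouse for twelve to sixteen days. Injury was visually rated against untreated controls on a 0–10 scale, where 0 is no effect and 10 is complete control.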

[2] = system: duck salad (Heteranthera limosa); test: Test B flood test; conditions: for Plant response rating, Ducksalad: Postemergence (flood test species)
Procedure, shortened: as §1

rice (Oryza sativa) = test: Test B flood test; conditions: for Plant response rating, Rice: Postemergence (flood test species)
Procedure, shortened: as §1

[3] = system: smallflower flatsedge (Cyperus difformis); test: Test B flood test; conditions: for Plant response rating, S. Flatsedge: Postemergence (flood test species)
Procedure, shortened: as §1

[4] = system: cocklebur (Xanthium strumarium); test: Test B pre-/postemergence; set-up: key: 0 is no effect; 10 is complete control
Procedure, shortened: (§2)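 Seeds were planted and sprayed preemergence, while plants at 2 to 18 cm (1- to 4-leaf stage) were sprayed postemergence at the same time, with test chemical in a non-phytotoxic solvent mixture containing surfactant. After twelve to sixteen days in a greenhouse, injury was rated visually against untreated controls on a 0–10 scale.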

[5] = system: sugar beet (Beta vulgaris); test: Test B pre-/postemergence; set-up: key: 0 is no effect; 10 is complete control
Procedure, shortened: as §2

rape (Brassica napus) = test: Test B pre-/postemergence; set-up: key: 0 is no effect; 10 is complete control
Procedure, shortened: as §2

[6] = system: purple nutsedge (Cyperus rotundus); test: Test B pre-/postemergence; set-up: key: 0 is no effect; 10 is complete control
Procedure, shortened: as §2

[7] = system: blackgrass (Alopecurus myosuroides); test: Test B pre-/postemergence; set-up: key: 0 is no effect; 10 is complete control
Procedure, shortened: as §2

corn (Zea mays) = test: Test B pre-/postemergence; set-up: key: 0 is no effect; 10 is complete control
Procedure, shortened: as §2

[8] = system: pigweed (Amaranthus retroflexus); test: Test B pre-/postemergence; set-up: key: 0 is no effect; 10 is complete control
Procedure, shortened: as §2

[9] = system: velvetleaf (Abutilon theophrasti); test: Test B pre-/postemergence; set-up: key: 0 is no effect; 10 is complete control
Procedure, shortened: as §2

[10] = system: crabgrass (Digitaria sanguinalis); test: Test B pre-/postemergence; set-up: key: 0 is no effect; 10 is complete control
Procedure, shortened: as §2

[11] = system: wheat (Triticum aestivum); test: Test B pre-/postemergence; set-up: key: 0 is no effect; 10 is complete control
Procedure, shortened: as §2

soybean (Glycine max) = test: Test B pre-/postemergence; set-up: key: 0 is no effect; 10 is complete control
Procedure, shortened: as §2

[12] = Rate 62 g/ha, Postemergence (flood test)
[13] = Rate 125 g/ha, Postemergence section (flood test species)
[14] = Preemergence, Rate 62 g/ha, scale of 0 to 10

SMILES: Cc1cnc(-n2ccc(C(F)(F)F)n2)nc1C(=O)c1cccc(C(F)(F)F)c1 [Compound 59]
- Barnyardgrass plant response rating [1, 12]: 3
- Barnyardgrass plant response rating [1, 13]: 4
- Plant response rating, Barnyardgrass ([1]; Rate 250 g/ha): 5
- Plant response rating, Barnyardgrass ([1]; Rate 500 g/ha): 8
- Ducksalad plant response rating [2, 12]: 3
- Ducksalad plant response rating [2, 13]: 4
- Plant response rating, Ducksalad ([2]; Rate 250 g/ha): 6
- Plant response rating, Ducksalad ([2]; Rate 500 g/ha): 7
- Rice plant response rating (rice (Oryza sativa); [12]): 2
- Rice plant response rating (rice (Oryza sativa); [13]): 3
- Plant response rating, Rice (rice (Oryza sativa); Rate 250 g/ha): 4
- Plant response rating, Rice (rice (Oryza sativa); Rate 500 g/ha): 6
- S. Flatsedge plant response rating [3, 12]: 7
- S. Flatsedge plant response rating [3, 13]: 7
- Plant response rating, S. Flatsedge ([3]; Rate 250 g/ha): 8
- Plant response rating, S. Flatsedge ([3]; Rate 500 g/ha): 9
- Plant response rating, Cocklebur [4, 14]: 0
- Cocklebur plant response rating ([4]; Rate 62 g/ha, Postemergence): 4
- Cocklebur plant response rating ([4]; Rate 125 g/ha, Postemergence): 7
- Plant response rating, Cocklebur ([4]; Rate 125 g/ha, Preemergence): 2
- Plant response rating, Cocklebur ([4]; Rate 250 g/ha, Postemergence): 7
- Plant response rating, Cocklebur ([4]; Rate 500 g/ha, Postemergence): 8
- Plant response rating, Cocklebur ([4]; Rate 500 g/ha, Preemergence): 2
- Plant response rating, Sugarbeets [5, 14]: 10
- Sugarbeets plant response rating ([5]; Rate 62 g/ha, Postemergence): 9
- Sugarbeets plant response rating ([5]; Rate 125 g/ha, Postemergence): 9
- Plant response rating, Sugarbeets ([5]; Rate 125 g/ha, Preemergence): 10
- Plant response rating, Sugarbeets ([5]; Rate 250 g/ha, Postemergence): 9
- Plant response rating, Sugarbeets ([5]; Rate 250 g/ha, Preemergence): 10
- Plant response rating, Sugarbeets ([5]; Rate 500 g/ha, Postemergence): 9
- Plant response rating, Sugarbeets ([5]; Rate 500 g/ha, Preemergence): 10
- Plant response rating, Rape (rape (Brassica napus); [14]): 5
- Rape plant response rating (rape (Brassica napus); Rate 62 g/ha, Postemergence): 6
- Rape plant response rating (rape (Brassica napus); Rate 125 g/ha, Postemergence): 7
- Plant response rating, Rape (rape (Brassica napus); Rate 125 g/ha, Preemergence): 7
- Plant response rating, Rape (rape (Brassica napus); Rate 250 g/ha, Postemergence): 7
- Plant response rating, Rape (rape (Brassica napus); Rate 250 g/ha, Preemergence): 7
- Plant response rating, Rape (rape (Brassica napus); Rate 500 g/ha, Postemergence): 7
- Plant response rating, Rape (rape (Brassica napus); Rate 500 g/ha, Preemergence): 10
- Plant response rating, Nutsedge [6, 14]: 0
- Nutsedge plant response rating ([6]; Rate 62 g/ha, Postemergence): 0
- Nutsedge plant response rating ([6]; Rate 125 g/ha, Postemergence): 0
- Plant response rating, Nutsedge ([6]; Rate 125 g/ha, Preemergence): 0
- Plant response rating, Nutsedge ([6]; Rate 250 g/ha, Postemergence): 0
- Plant response rating, Nutsedge ([6]; Rate 250 g/ha, Preemergence): 0
- Plant response rating, Nutsedge ([6]; Rate 500 g/ha, Postemergence): 0
- Plant response rating, Nutsedge ([6]; Rate 500 g/ha, Preemergence): 0
- Plant response rating, Blackgrass [7, 14]: 2
- Blackgrass plant response rating ([7]; Rate 62 g/ha, Postemergence): 2
- Blackgrass plant response rating ([7]; Rate 125 g/ha, Postemergence): 3
- Plant response rating, Blackgrass ([7]; Rate 125 g/ha, Preemergence): 3
- Plant response rating, Blackgrass ([7]; Rate 250 g/ha, Postemergence): 5
- Plant response rating, Blackgrass ([7]; Rate 250 g/ha, Preemergence): 7
- Plant response rating, Blackgrass ([7]; Rate 500 g/ha, Postemergence): 6
- Plant response rating, Blackgrass ([7]; Rate 500 g/ha, Preemergence): 9
- Plant response rating, Corn (corn (Zea mays); [14]): 0
- Corn plant response rating (corn (Zea mays); Rate 62 g/ha, Postemergence): 1
- Corn plant response rating (corn (Zea mays); Rate 125 g/ha, Postemergence): 2
- Plant response rating, Corn (corn (Zea mays); Rate 125 g/ha, Preemergence): 1
- Plant response rating, Corn (corn (Zea mays); Rate 250 g/ha, Postemergence): 3
- Plant response rating, Corn (corn (Zea mays); Rate 250 g/ha, Preemergence): 1
- Plant response rating, Corn (corn (Zea mays); Rate 500 g/ha, Postemergence): 4
- Plant response rating, Corn (corn (Zea mays); Rate 500 g/ha, Preemergence): 3
- Plant response rating, Redroot pigweed [8, 14]: 8
- Redroot pigweed plant response rating ([8]; Rate 62 g/ha, Postemergence): 8
- Redroot pigweed plant response rating ([8]; Rate 125 g/ha, Postemergence): 8
- Plant response rating, Redroot pigweed ([8]; Rate 125 g/ha, Preemergence): 10
- Plant response rating, Redroot pigweed ([8]; Rate 250 g/ha, Postemergence): 8
- Plant response rating, Redroot pigweed ([8]; Rate 250 g/ha, Preemergence): 10
- Plant response rating, Redroot pigweed ([8]; Rate 500 g/ha, Postemergence): 9
- Plant response rating, Redroot pigweed ([8]; Rate 500 g/ha, Preemergence): 10
- Plant response rating, Velvetleaf [9, 14]: 7
- Velvetleaf plant response rating ([9]; Rate 62 g/ha, Postemergence): 6
- Velvetleaf plant response rating ([9]; Rate 125 g/ha, Postemergence): 7
- Plant response rating, Velvetleaf ([9]; Rate 125 g/ha, Preemergence): 7
- Plant response rating, Velvetleaf ([9]; Rate 250 g/ha, Postemergence): 7
- Plant response rating, Velvetleaf ([9]; Rate 250 g/ha, Preemergence): 9
- Plant response rating, Velvetleaf ([9]; Rate 500 g/ha, Postemergence): 8
- Plant response rating, Velvetleaf ([9]; Rate 500 g/ha, Preemergence): 10
- Plant response rating, Crabgrass [10, 14]: 8
- Crabgrass plant response rating ([10]; Rate 62 g/ha, Postemergence): 6
- Crabgrass plant response rating ([10]; Rate 125 g/ha, Postemergence): 6
- Plant response rating, Crabgrass ([10]; Rate 125 g/ha, Preemergence): 9
- Plant response rating, Crabgrass ([10]; Rate 250 g/ha, Postemergence): 8
- Plant response rating, Crabgrass ([10]; Rate 250 g/ha, Preemergence): 10
- Plant response rating, Crabgrass ([10]; Rate 500 g/ha, Postemergence): 9
- Plant response rating, Crabgrass ([10]; Rate 500 g/ha, Preemergence): 10
- Plant response rating, Wheat [11, 14]: 1
- Wheat plant response rating ([11]; Rate 62 g/ha, Postemergence): 1
- Wheat plant response rating ([11]; Rate 125 g/ha, Postemergence): 2
- Plant response rating, Wheat ([11]; Rate 125 g/ha, Preemergence): 2
- Plant response rating, Wheat ([11]; Rate 250 g/ha, Postemergence): 2
- Plant response rating, Wheat ([11]; Rate 250 g/ha, Preemergence): 3
- Plant response rating, Wheat ([11]; Rate 500 g/ha, Postemergence): 3
- Plant response rating, Wheat ([11]; Rate 500 g/ha, Preemergence): 5
- Plant response rating, Soybean (soybean (Glycine max); [14]): 1
- Soybean plant response rating (soybean (Glycine max); Rate 62 g/ha, Postemergence): 6
- Soybean plant response rating (soybean (Glycine max); Rate 125 g/ha, Postemergence): 7
- Plant response rating, Soybean (soybean (Glycine max); Rate 125 g/ha, Preemergence): 2
- Plant response rating, Soybean (soybean (Glycine max); Rate 250 g/ha, Postemergence): 8
- Plant response rating, Soybean (soybean (Glycine max); Rate 250 g/ha, Preemergence): 2
- Plant response rating, Soybean (soybean (Glycine max); Rate 500 g/ha, Postemergence): 9
- Plant response rating, Soybean (soybean (Glycine max); Rate 500 g/ha, Preemergence): 4
